Source: patent publication USRE32311E
Values after ≈ are worked out from the molar mass of the structure shown.

Legend:
[1] = test system: Staphylococcus aureus X1.1; assay: agar-dilution MIC; type: cell-based
[2] = test system: Staphylococcus aureus V41; assay: agar-dilution MIC; type: cell-based; settings: Staphylococcus aureus V41, penicillin-resistant strain
Description: (§1) In Table VII activity is measured by the minimal inhibitory concentration (MIC), i.e. the lowest concentration of compound at which growth of the microorganism is inhibited by the test compound.

[3] = test system: Staphylococcus aureus X400; assay: agar-dilution MIC; type: cell-based; settings: Staphylococcus aureus X400, methicillin-resistant strain
Description: as §1

[4] = test system: Staphylococcus epidermidis EP11; assay: agar-dilution MIC; type: cell-based
Description: as §1

[5] = test system: Staphylococcus epidermidis EP12; assay: agar-dilution MIC; type: cell-based
Description: as §1

[6] = test system: Streptococcus pyogenes C203; assay: agar-dilution MIC; type: cell-based
Description: as §1

[7] = test system: Streptococcus pneumoniae Park I; type: cell-based; settings: agar dilution
Description: as §1

[8] = test system: Streptococcus Group D X66; assay: agar-dilution MIC; type: cell-based
Description: as §1

[9] = test system: Streptococcus Group D 9960; assay: agar-dilution MIC; type: cell-based
Streptococcus pyogenes = assay: experimental bacterial infection in mice, ED50; type: in vivo; settings: two doses
toxicity, LD50 in mice = type: in vivo; settings: administered intravenously
Staphylococcus aureus = assay: experimental bacterial infection in mice, ED50; type: in vivo; settings: two doses

Structure (SMILES) | MIC [1] [µg/mL] | MIC [2] [µg/mL] | MIC [3] [µg/mL] | MIC [4] [µg/mL] | MIC [5] [µg/mL] | MIC [6] [µg/mL] | MIC [7] [µg/mL] | MIC [8] [µg/mL] | MIC [9] [µg/mL] | ED50 Streptococcus pyogenes Oral (Streptococcus pyogenes) [mg/kg × 2] | ED50 Streptococcus pyogenes Subcutaneous (Streptococcus pyogenes) [mg/kg × 2] | LD50 in Mice (toxicity, LD50 in mice) [mg/kg] | ED50 Staphylococcus aureus Subcutaneous (Staphylococcus aureus) [mg/kg × 2]
CCCCCCCCCC(=O)N[C@@H](Cc1ccccc1)C(=O)N[C@@H](Cc1c[nH]c2ccccc12)C(=O)N[C@H](CC(N)=O)C(=O)N[C@@H](CC(=O)O)C(=O)N[C@@H]1C(=O)NCC(=O)N[C@@H](CCCN)C(=O)N[C@@H](CC(=O)O)C(=O)N[C@H](C)C(=O)N[C@@H](CC(=O)O)C(=O)NCC(=O)N[C@H](CO)C(=O)N[C@@H]([C@H](C)CC(=O)O)C(=O)N[C@@H](CC(=O)c2ccccc2N)C(=O)O[C@@H]1C [Compound 19, NTrp-[N-(n-Decanoyl)-L-phenylalanyl]-A-21978C Nucleus] | 0.5 (≈ 0.283 µM) | 0.5 (≈ 0.283 µM) | 1 (≈ 0.566 µM) | 1 (≈ 0.566 µM) | 0.5 (≈ 0.283 µM) | 0.25 (≈ 0.141 µM) | 0.75 (≈ 0.424 µM) | 8 (≈ 4.53 µM) | 2 (≈ 1.13 µM) | > 200 | 0.39 | 600 | –
CCCCCCCCCCC(=O)N[C@@H](Cc1ccccc1)C(=O)N[C@@H](Cc1c[nH]c2ccccc12)C(=O)N[C@H](CC(N)=O)C(=O)N[C@@H](CC(=O)O)C(=O)N[C@@H]1C(=O)NCC(=O)N[C@@H](CCCN)C(=O)N[C@@H](CC(=O)O)C(=O)N[C@H](C)C(=O)N[C@@H](CC(=O)O)C(=O)NCC(=O)N[C@H](CO)C(=O)N[C@@H]([C@H](C)CC(=O)O)C(=O)N[C@@H](CC(=O)c2ccccc2N)C(=O)O[C@@H]1C [Compound 20] | 0.5 (≈ 0.281 µM) | 0.5 (≈ 0.281 µM) | 2 (≈ 1.12 µM) | 2 (≈ 1.12 µM) | 2 (≈ 1.12 µM) | – | – | 4 (≈ 2.24 µM) | 2 (≈ 1.12 µM) | > 200 | 0.35 | 400 | 1.25
CCCCCCCCCCCC(=O)Nc1ccc(C(=O)N[C@@H](Cc2c[nH]c3ccccc23)C(=O)N[C@H](CC(N)=O)C(=O)N[C@@H](CC(=O)O)C(=O)N[C@@H]2C(=O)NCC(=O)N[C@@H](CCCN)C(=O)N[C@@H](CC(=O)O)C(=O)N[C@H](C)C(=O)N[C@@H](CC(=O)O)C(=O)NCC(=O)N[C@H](CO)C(=O)N[C@@H]([C@H](C)CC(=O)O)C(=O)N[C@@H](CC(=O)c3ccccc3N)C(=O)O[C@@H]2C)cc1 [Compound 4] | 4 (≈ 2.26 µM) | – | 8 (≈ 4.53 µM) | – | – | – | – | – | – | > 200 | 18.8 | > 300 | < 5
CCCCCCCCCCCCCCCC(=O)N[C@@H](Cc1c[nH]c2ccccc12)C(=O)N[C@@H](CC(N)=O)C(=O)N[C@@H](CC(=O)O)C(=O)N[C@@H]1C(=O)NCC(=O)N[C@@H](CCCN)C(=O)N[C@@H](CC(=O)O)C(=O)N[C@H](C)C(=O)N[C@@H](CC(=O)O)C(=O)NCC(=O)N[C@H](CO)C(=O)N[C@@H]([C@H](C)CC(=O)O)C(=O)N[C@@H](CC(=O)c2ccccc2N)C(=O)O[C@@H]1C [Compound 10] | – | – | – | 2.1 (≈ 1.23 µM) | – | 0.06 (≈ 0.0352 µM) | 0.25 (≈ 0.147 µM) | – | 2.1 (≈ 1.23 µM) | – | 0.69 | 450 | –
CCCCCCCCCCCC(=O)N[C@@H](Cc1c[nH]c2ccccc12)C(=O)N[C@@H](Cc1c[nH]c2ccccc12)C(=O)N[C@H](CC(N)=O)C(=O)N[C@@H](CC(=O)O)C(=O)N[C@@H]1C(=O)NCC(=O)N[C@@H](CCCN)C(=O)N[C@@H](CC(=O)O)C(=O)N[C@H](C)C(=O)N[C@@H](CC(=O)O)C(=O)NCC(=O)N[C@H](CO)C(=O)N[C@@H]([C@H](C)CC(=O)O)C(=O)N[C@@H](CC(=O)c2ccccc2N)C(=O)O[C@@H]1C [Compound 24] | 1 (≈ 0.545 µM) | 2 (≈ 1.09 µM) | 4 (≈ 2.18 µM) | 4 (≈ 2.18 µM) | 4 (≈ 2.18 µM) | 2 (≈ 1.09 µM) | 1 (≈ 0.545 µM) | 16 (≈ 8.72 µM) | 4 (≈ 2.18 µM) | > 200 | – | 450 | 2.3
CCCCCCCCCCCCC(=O)N[C@@H](Cc1ccccc1)C(=O)N[C@@H](Cc1c[nH]c2ccccc12)C(=O)N[C@H](CC(N)=O)C(=O)N[C@@H](CC(=O)O)C(=O)N[C@@H]1C(=O)NCC(=O)N[C@@H](CCCN)C(=O)N[C@@H](CC(=O)O)C(=O)N[C@H](C)C(=O)N[C@@H](CC(=O)O)C(=O)NCC(=O)N[C@H](CO)C(=O)N[C@@H]([C@H](C)CC(=O)O)C(=O)N[C@@H](CC(=O)c2ccccc2N)C(=O)O[C@@H]1C [Compound 21] | 0.5 (≈ 0.276 µM) | 0.5 (≈ 0.276 µM) | 2 (≈ 1.11 µM) | 2 (≈ 1.11 µM) | 2 (≈ 1.11 µM) | – | – | 1 (≈ 0.553 µM) | 0.25 (≈ 0.138 µM) | > 200 | 0.14 | – | 0.76
CCCCCCCCCCC(=O)N[C@@H](Cc1ccccc1)C(=O)NCCC[C@@H]1NC(=O)CNC(=O)[C@@H](NC(=O)[C@H](CC(=O)O)NC(=O)[C@@H](CC(N)=O)NC(=O)[C@@H](N)Cc2c[nH]c3ccccc23)[C@@H](C)OC(=O)[C@H](CC(=O)c2ccccc2N)NC(=O)[C@H]([C@H](C)CC(=O)O)NC(=O)[C@@H](CO)NC(=O)CNC(=O)[C@H](CC(=O)O)NC(=O)[C@@H](C)NC(=O)[C@H](CC(=O)O)NC1=O [Compound 26] | 8 (≈ 4.49 µM) | – | – | – | – | 1 (≈ 0.561 µM) | – | – | 32 (≈ 18 µM) | > 200 | > 18 | – | 9.2
CCCCCCCCCCCC(=O)N[C@H](Cc1ccccc1)C(=O)N[C@@H](Cc1c[nH]c2ccccc12)C(=O)N[C@H](CC(N)=O)C(=O)N[C@@H](CC(=O)O)C(=O)N[C@@H]1C(=O)NCC(=O)N[C@@H](CCCN)C(=O)N[C@@H](CC(=O)O)C(=O)N[C@H](C)C(=O)N[C@@H](CC(=O)O)C(=O)NCC(=O)N[C@H](CO)C(=O)N[C@@H]([C@H](C)CC(=O)O)C(=O)N[C@@H](CC(=O)c2ccccc2N)C(=O)O[C@@H]1C [Compound 1] | 0.5 (≈ 0.278 µM) | 0.5 (≈ 0.278 µM) | 1 (≈ 0.557 µM) | 2 (≈ 1.11 µM) | 1 (≈ 0.557 µM) | – | – | 1 (≈ 0.557 µM) | 0.5 (≈ 0.278 µM) | > 200 | – | 250 | –
CCCCCCCCCCCC(=O)NCCCCC(=O)N[C@@H](Cc1c[nH]c2ccccc12)C(=O)N[C@H](CC(N)=O)C(=O)N[C@@H](CC(=O)O)C(=O)N[C@@H]1C(=O)NCC(=O)N[C@@H](CCCN)C(=O)N[C@@H](CC(=O)O)C(=O)N[C@H](C)C(=O)N[C@@H](CC(=O)O)C(=O)NCC(=O)N[C@H](CO)C(=O)N[C@@H]([C@H](C)CC(=O)O)C(=O)N[C@@H](CC(=O)c2ccccc2N)C(=O)O[C@@H]1C [Compound 2] | 4 (≈ 2.29 µM) | 4 (≈ 2.29 µM) | 4 (≈ 2.29 µM) | 4 (≈ 2.29 µM) | 2 (≈ 1.14 µM) | 1 (≈ 0.572 µM) | 4 (≈ 2.29 µM) | 32 (≈ 18.3 µM) | 8 (≈ 4.58 µM) | 117 | – | > 600 | –
CCCCCC(=O)N[C@@H](Cc1c[nH]c2ccccc12)C(=O)NCCC[C@@H]1NC(=O)CNC(=O)[C@@H](NC(=O)[C@H](CC(=O)O)NC(=O)[C@@H](CC(N)=O)NC(=O)[C@H](Cc2c[nH]c3ccccc23)NC(=O)CCCCCCCCC(C)CC)[C@@H](C)OC(=O)[C@H](CC(=O)c2ccccc2N)NC(=O)[C@H]([C@H](C)CC(=O)O)NC(=O)[C@@H](CO)NC(=O)CNC(=O)[C@H](CC(=O)O)NC(=O)[C@@H](C)NC(=O)[C@H](CC(=O)O)NC1=O (stereo partly shown) [Compound 29] | – | – | 1 (≈ 0.514 µM) | – | – | – | – | 8 (≈ 4.11 µM) | 32 (≈ 16.4 µM) | > 200 | – | 37.5 | –
CCCCCCCCCC(=O)N[C@@H](Cc1c[nH]c2ccccc12)C(=O)N[C@@H](CC(N)=O)C(=O)N[C@@H](CC(=O)O)C(=O)N[C@@H]1C(=O)NCC(=O)N[C@@H](CCCN)C(=O)N[C@@H](CC(=O)O)C(=O)N[C@H](C)C(=O)N[C@@H](CC(=O)O)C(=O)NCC(=O)N[C@H](CO)C(=O)N[C@@H]([C@H](C)CC(=O)O)C(=O)N[C@@H](CC(=O)c2ccccc2N)C(=O)O[C@@H]1C [Compound 6] | 1 (≈ 0.617 µM) | 2 (≈ 1.23 µM) | 4 (≈ 2.47 µM) | 2 (≈ 1.23 µM) | 2 (≈ 1.23 µM) | 0.5 (≈ 0.309 µM) | 2 (≈ 1.23 µM) | 16 (≈ 9.87 µM) | 2 (≈ 1.23 µM) | – | – | – | –
CCCCCCCCC(=O)N[C@@H](Cc1ccccc1)C(=O)N[C@@H](Cc1c[nH]c2ccccc12)C(=O)N[C@H](CC(N)=O)C(=O)N[C@@H](CC(=O)O)C(=O)N[C@@H]1C(=O)NCC(=O)N[C@@H](CCCN)C(=O)N[C@@H](CC(=O)O)C(=O)N[C@H](C)C(=O)N[C@@H](CC(=O)O)C(=O)NCC(=O)N[C@H](CO)C(=O)N[C@@H]([C@H](C)CC(=O)O)C(=O)N[C@@H](CC(=O)c2ccccc2N)C(=O)O[C@@H]1C [Compound 18] | 2 (≈ 1.14 µM) | 2 (≈ 1.14 µM) | 4 (≈ 2.28 µM) | 4 (≈ 2.28 µM) | 2 (≈ 1.14 µM) | 0.5 (≈ 0.285 µM) | – | 32 (≈ 18.2 µM) | 8 (≈ 4.56 µM) | 184 | 0.59 | > 600 | 1.38
